Test results from PMC5354820, “Novel PARP1/2 inhibitor mefuparib hydrochloride elicits potent in vitro and in vivo anticancer activity, characteristic of high tissue distribution” (Oncotarget, 2016).
In brackets after ≈: the same amount, converted by molar mass. Where two headings read alike, the source gives them in different places.

Tests used:
[1] = cited from earlier work
[2] = Metabolites in monkey plasma; assay type: in vivo; settings: monkeys, MPH 10 mg/kg oral; for share of the total amount of all the metabolites and MPH in the plasma: 3-h time point; for average remaining amount, of the corresponding plasma amount at 3 h: 12-h time point
Procedure: SD rats and cynomolgus monkeys were used to do the in vivo pharmacokinetic studies. […] The metabolites in the monkey plasma were analyzed by UPLC-UV/Q-TOF MS. The metabolite data were collected with Analyst® TF V1.6 (AB Sciex Inc., Framingham, MA) and Masslynx V4.1 (Waters Corporation, Milford, MA) and analyzed with PeakView® V1.2 and MetabolitePilot V1.5 (AB Sciex).

SW620 xenografts = experiment: SW620 subcutaneous xenografts in nude mice, alone or with TMZ; assay type: in vivo; settings: SW620, d21, TMZ 2 mg/kg alone
Procedure: After 1~2 passages in nude mice, the well-grown xenografts were cut into 1.5-mm^3 fragments that subsequently were transplanted s.c. into the right flank of nude mice. When xenografts reached a volume of 100–200 mm^3 (230-240 mm^3 for V79), the mice were randomized to control and treated groups and received the corresponding treatments as indicated. […] The size of xenografts and the body weight of mice were measured individually twice per week. The xenografts were measured for the maximal width (X) and length (Y) and the volume (V) was calculated as (X^2Y)/2. Relative tumor volume (RTV) was calculated as Vt / V0, where V0 and Vt were the volume before and after treatments, respectively.

V-C8 cells = experiment: Proliferative inhibition assay, V-C8; assay type: cell-based, Chinese hamster; settings: Cricetulus griseus, V-C8, 72 h, read-out: IC50 (mean ± SD)
Procedure: (§2) Cells cultured in 96-well plates were treated with PARP inhibitors alone or in combination with the indicated anticancer drugs for 3 days (Chinese hamster cells and Ewing sarcoma cells) or 7 days (all the other cells). Then the cells were subjected to the Cell Counting Kit 8 (CCK8) assays (Chinese hamster cells, Ewing sarcoma cells, HCC1937 and MDA-MB-436 cells) or by Sulforhodamine B (SRB) assays (all the other cells) as described previously [18, 19]. […] The averaged IC50 values (mean ± SD) were determined with the Logit method from three independent tests.

DoTc2-4510 cells = experiment: Proliferative inhibition assay, DoTc2-4510; assay type: cell-based; settings: Homo sapiens, DoTc2-4510, 168 h, read-out: IC50 (mean ± SD)
Procedure: as §2

SK-ES-1 cells = experiment: Proliferative inhibition assay, SK-ES-1; assay type: cell-based; settings: Homo sapiens, SK-ES1, 72 h, read-out: IC50 (mean ± SD)
Procedure: as §2

U251 cells = experiment: Proliferative inhibition assay, U251; assay type: cell-based; settings: Homo sapiens, U-251, 168 h, read-out: IC50 (mean ± SD)
Procedure: as §2

RD-ES cells = experiment: Proliferative inhibition assay, RD-ES; assay type: cell-based; settings: Homo sapiens, 72 h, read-out: IC50 (mean ± SD)
Procedure: as §2

[3] = set-up: method as in PMID 18800822; settings: rats; cited from earlier work
[4] = tested on: γH2AX in MDA-MB-436 cells; experiment: γH2AX accumulation in cultured MDA-MB-436 cells; assay type: cell-based, human; settings: MDA-MB-436 (BRCA1−/−), concentration-dependent
[5] = set-up: method as in PMID 19553641; settings: cited from earlier work
MDA-MB-436 cells = experiment: Proliferative inhibition assay, MDA-MB-436; assay type: cell-based; settings: Homo sapiens, MDA-MB-436, 168 h, read-out: IC50 (mean ± SD)
Procedure: as §2

HCC1937 cells = experiment: Proliferative inhibition assay, HCC1937; assay type: cell-based; settings: Homo sapiens, HCC1937, 168 h, read-out: IC50 (mean ± SD)
Procedure: as §2

UWB1.289 cells = experiment: Proliferative inhibition assay, UWB1.289; assay type: cell-based; settings: Homo sapiens, UWB1289, 168 h, read-out: IC50 (mean ± SD)
Procedure: as §2

V79 xenografts = experiment: V79 subcutaneous xenografts in nude mice; assay type: in vivo; settings: similar treatments as in V-C8 xenografts
Excerpt: (§1) V-C8, V79, MDA-MB-436 and SW620 xenografts were established by inoculating 5 × 10^6 cells s.c. in nude mice, respectively. After 1~2 passages in nude mice, the well-grown xenografts were cut into 1.5-mm^3 fragments that subsequently were transplanted s.c. into the right flank of nude mice. When xenografts reached a volume of 100–200 mm^3 (230-240 mm^3 for V79), the mice were randomized to control and treated groups and received the corresponding treatments as indicated. […]. The size of xenografts and the body weight of mice were measured individually twice per week. The xenografts were measured for the maximal width (X) and length (Y) and the volume (V) was calculated as (X^2Y)/2. Relative tumor volume (RTV) was calculated as Vt / V0, where V0 and Vt were the volume before and after treatments, respectively. The in vivo anticancer activity was judged by their T/C (%) values. T/C (%) was calculated as (TRTV / CRTV)×100%, where TRTV and CRTV represented the RTV of the treatment and the vehicle group, respectively.

γH2AX in V-C8 cells = experiment: γH2AX accumulation in cultured V-C8 cells; assay type: cell-based, Chinese hamster; settings: V-C8 (BRCA2−/−), concentration-dependent
HCT-15 cells = experiment: Proliferative inhibition assay, HCT-15; assay type: cell-based; settings: Homo sapiens, HCT-15, 168 h, read-out: IC50 (mean ± SD)
Procedure: as §2

V79 cells = experiment: Proliferative inhibition assay, V79; assay type: cell-based, Chinese hamster; settings: Cricetulus griseus, V79, 72 h, read-out: IC50 (mean ± SD)
Procedure: as §2

V-C8+H13 cells = experiment: Proliferative inhibition assay, V-C8+H13; assay type: cell-based, Chinese hamster; settings: Cricetulus griseus, 72 h, read-out: IC50 (mean ± SD)
Procedure: as §2

PC-3 cells = experiment: Proliferative inhibition assay, PC-3; assay type: cell-based; settings: Homo sapiens, PC-3, 168 h, read-out: IC50 (mean ± SD)
Procedure: as §2

[6] = set-up: method as in PMID 19553641; settings: humans; cited from earlier work
[7] = set-up: method as in PMID 18800822; settings: dogs; cited from earlier work
MDA-MB-436 xenografts = experiment: MDA-MB-436 subcutaneous xenografts in nude mice; assay type: in vivo; settings: oral; MPH once every other day, AZD2281 30 mg/kg each day
Excerpt: as §1

Capan-1 cells = experiment: Proliferative inhibition assay, Capan-1; assay type: cell-based; settings: Homo sapiens, CAPAN-1, 168 h, read-out: IC50 (mean ± SD)
Procedure: as §2

P-glycoprotein (P-gp) = tested on: P-glycoprotein (P-gp); set-up: method as in PMID 26374559; settings: cited from earlier work
V-C8 xenografts = assay type: in vivo; settings: mouse, in vivo
Excerpt: as §1

## CNCc1ccc(-c2[nH]c3cc(F)cc4c3c2CCNC4=O)cc1 [rucaparib]
[1]
  water solubility: < 1000 µg/mL

## CC(=O)NCc1ccc(-c2cc3cc(F)cc(C(=O)O)c3o2)cc1 [M5]
[2]
  share of the total amount of all the metabolites and MPH in the plasma: 0.72%

## Cn1ncnc1[C@H]1c2n[nH]c(=O)c3cc(F)cc(c23)N[C@@H]1c1ccc(F)cc1 [talazoparib]
[1]
  water solubility: < 1000 µg/mL

## Cn1nnc2c(C(N)=O)ncn2c1=O [TMZ, temozolomide, reference compound]
SW620 xenografts
  FTV (fractional tumor volume), TMZ alone: 0.16

## NC(=O)c1cccc2cn(-c3ccc([C@@H]4CCCNC4)cc3)nc12 [niraparib]
[1]
  water solubility: < 1000 µg/mL

## CNC(=O)c1ccc(-c2cc3cc(F)cc(C(N)=O)c3o2)cc1 [M4]
[2]
  share of the total amount of all the metabolites and MPH in the plasma: 0.24%

## CN(Cc1ccc(-c2cc3cc(F)cc(C(N)=O)c3o2)cc1)OC1OC(C(=O)O)C(O)C(O)C1O (centres unmarked) [M6]
[2]
  share of the total amount of all the metabolites and MPH in the plasma: 1.63%

## CNCc1ccc(-c2cc3cc(F)cc(C(=O)OC4OC(C(=O)O)C(O)C(O)C4O)c3o2)cc1 (centres unmarked) [M3]
[2]
  share of the total amount of all the metabolites and MPH in the plasma: 4.18%

## CNCc1ccc(-c2cc3cc(F)cc(C(=O)O)c3o2)cc1 [M1]
[2]
  share of the total amount of all the metabolites and MPH in the plasma: 52.18%
  average remaining amount, of the corresponding plasma amount at 3 h: 3.13%

## O=C(c1cc(Cc2n[nH]c(=O)c3ccccc23)ccc1F)N1CCN(C(=O)C2CC2)CC1 [AZD2281, olaparib, reference compound]
V-C8 cells
  IC50: 610 ± 40 nM
DoTc2-4510 cells
  IC50: 890 ± 280 nM
SK-ES-1 cells
  IC50: 1700 ± 130 nM
U251 cells
  IC50: 2500 ± 640 nM
RD-ES cells
  IC50: 670 ± 140 nM
[3]
  Vd: 1.18 L/kg
[4]
  γH2AX levels (DSB accumulation): increased levels of γH2AX
[5]
  passage of the blood-brain barrier: hard to go through the blood-brain barrier
[1]
  water solubility: < 1000 µg/mL
[1]; independent of pH
  solubility in aqueous media: 100 µg/mL (≈ 230 µM)
MDA-MB-436 cells
  IC50: 20 ± 10 nM
HCC1937 cells
  IC50: 7280 ± 1910 nM
UWB1.289 cells
  IC50: 2980 ± 1650 nM
V79 xenografts
  effect on growth of V79 xenografts: did not inhibit the growth of V79 xenografts
γH2AX in V-C8 cells
  γH2AX levels (DSB accumulation): increased levels of γH2AX
HCT-15 cells
  IC50: 25700 ± 4700 nM
V79 cells
  IC50: 15600 ± 1150 nM
V-C8+H13 cells
  IC50: 13600 ± 1850 nM
PC-3 cells
  IC50: 4700 ± 690 nM
[6]
  average Vd: 40.3 L
[7]
  Vd: 1.3 L/kg
MDA-MB-436 xenografts
  effect on growth of MDA-MB-436 (BRCA1−/−) xenografts: between those of MPH at 40 mg/kg and 80 mg/kg every other day
Capan-1 cells
  IC50: 1730 ± 320 nM
P-glycoprotein (P-gp)
  P-gp substrate: substrate of the drug transporter P-glycoprotein (P-gp)
V-C8 xenografts
  death or body-weight loss of the animals: did not cause death or significant body-weight loss

## NC(=O)c1cc(F)cc2cc(-c3ccc(C(=O)O)cc3)oc12 [M2]
[2]
  share of the total amount of all the metabolites and MPH in the plasma: 1.86%
  average remaining amount, of the corresponding plasma amount at 3 h: 23.54%

## C[C@]1(c2nc3c(C(N)=O)cccc3[nH]2)CCCN1 [veliparib]
[1]
  water solubility: < 1000 µg/mL
